Laboratory results published in patent US20240368181A1, “QUINOXALINE DERIVATIVES AND USES THEREOF” (Black Diamond Therapeutics, Inc., priority 2021, published 2024).

Columns and labels:
Assay type in all cases: cell-based
[1] = tested on: UM-UC-14 (FGFR3-S249C) cells; test: cell proliferation assay (CellTiterGlo), UM-UC-14 cells; settings: UMUC14, 72 h
How it was run: (§1)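 Luminescent ATP read-out (CellTiterGlo) after exposure to compound at varying concentrations or DMSO vehicle. IC50 derived with vehicle-treated wells set as viable cells.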

[2] = tested on: SNU-16 (FGFR2-amplification) cells; test: cell proliferation assay (CellTiterGlo), SNU-16 cells; settings: Homo sapiens, 72 hours
How it was run: as §1

[3] = tested on: DMS-114 (FGFR1 overexpression) cells; test: cell proliferation assay (CellTiterGlo), DMS-114 cells; settings: Homo sapiens, DMS-114, 72 h
How it was run: as §1

[4] = tested on: RT-112 (FGFR3-Tacc3 fusion) cells; test: cell proliferation assay (CellTiterGlo), RT-112 cells; settings: Homo sapiens, RT-112, RT112 cells, 72 hours
How it was run: as §1

| Compound | IC50 [1] [nM] | IC50 [2] [nM] | IC50 [3] [nM] | IC50 [4] [nM] |
| --- | --- | --- | --- | --- |
| Cc1nc2ccc(Oc3ccc4ncc(-c5cnn(CC6CC(F)(F)C6)c5)nc4c3Br)cc2[nH]1 [Compound 243] | 20 to 100 | 20 to 100 | ≥ 400 | 20 to 100 |
| Cc1nc2ccc(Oc3ccc4ncc(-c5cnn(C6CC(N7CCC7)C6)c5)nc4c3Cl)cc2[nH]1 (stereo not shown) [Compound 244] | 20 to 100 | 100 to 400 | ≥ 400 | 20 to 100 |
| Cc1nc2ccc(Oc3ccc4ncc(-c5cnn(CC6COCCN6C)c5)nc4c3Cl)cc2[nH]1 (stereo not shown) [Compound 245] | 20 to 100 | 20 to 100 | ≥ 400 | 20 to 100 |
| Cc1nc2ccc(Oc3ccc4ncc(-c5cnn(CC6COCCN6)c5)nc4c3Cl)cc2[nH]1 (stereo not shown) [Compound 246] | 20 to 100 | 20 to 100 | ≥ 400 | 20 to 100 |
| Cc1nc2cc(F)c(Oc3ccc4ncc(-c5cnn(CCO)c5)nc4c3Cl)cc2[nH]1 [Compound 247] | 20 to 100 | 20 to 100 | ≥ 400 | 20 to 100 |
| Cc1nc2cc(Oc3ccc4ncc(-c5cnn(CC6(O)CCN(C7COC7)CC6)c5)nc4c3Cl)ccc2[nH]1 [Compound 248] | 20 to 100 | 20 to 100 | 100 to 400 | 20 to 100 |
| Cc1nc2ccc(Oc3ccc4ncc(-c5cnn(C6CCNC(C)(C)C6)c5)nc4c3Cl)cc2[nH]1 (stereo not shown) [Compound 249] | 20 to 100 | 20 to 100 | ≥ 400 | 20 to 100 |
| Cc1nc2ccc(Oc3ccc4ncc(-c5cnn(C6CC(C)(O)C6)c5)nc4c3Cl)cc2[nH]1 (stereo not shown) [Compound 250] | 20 to 100 | < 20 | ≥ 400 | < 20 |
| Cc1nc2ccc(Oc3ccc4ncc(-c5cnn(CCN6CC(F)(F)C6)c5)nc4c3Cl)cc2[nH]1 [Compound 251] | 20 to 100 | 20 to 100 | ≥ 400 | 20 to 100 |
| Cc1nc2ccc(Oc3ccc4ncc(-c5cnn(CCN6CCC(F)(F)C6)c5)nc4c3Cl)cc2[nH]1 [Compound 252] | 20 to 100 | 20 to 100 | ≥ 400 | 20 to 100 |
| Cc1nc2ccc(Oc3ccc4ncc(-c5cnn(CC6(F)CC6)c5)nc4c3Cl)cc2[nH]1 [Compound 253] | 100 to 400 | 100 to 400 | ≥ 400 | 100 to 400 |
| Cc1nc2ccc(Oc3ccc4ncc(-c5cnn(C6CN(CC#N)C6)c5)nc4c3Cl)cc2[nH]1 [Compound 254] | 20 to 100 | 20 to 100 | ≥ 400 | 20 to 100 |
| Cc1nc2ccc(Oc3ccc4ncc(-c5cnn(C(C)(C)CC#N)c5)nc4c3Cl)cc2[nH]1 [Compound 255] | 20 to 100 | 20 to 100 | ≥ 400 | 20 to 100 |
| Cc1nc2ccc(Oc3ccc4ncc(-c5cnn(C6CC7(CNC7)C6)c5)nc4c3Cl)cc2[nH]1 [Compound 256] | 100 to 400 | 100 to 400 | ≥ 400 | 100 to 400 |
| Cc1nc2ccc(Oc3ccc4ncc(-c5cnn(CC6CC(C)(O)C6)c5)nc4c3Cl)cc2[nH]1 (stereo not shown) [Compound 257] | 20 to 100 | < 20 | 100 to 400 | < 20 |
| Cc1nc2ccc(Oc3ccc4ncc(-c5cnn(C6CC(O)C6)c5)nc4c3Cl)cc2[nH]1 (stereo not shown) [Compound 258] | 20 to 100 | 20 to 100 | ≥ 400 | 20 to 100 |
| Cc1nc2ccc(Oc3ccc4ncc(-c5cnn(CC6(O)CC6)c5)nc4c3Cl)cc2[nH]1 [Compound 259] | 20 to 100 | 20 to 100 | ≥ 400 | 20 to 100 |
| COC1CCN(CCn2cc(-c3cnc4ccc(Oc5ccc6nc(C)[nH]c6c5)c(Cl)c4n3)cn2)C1 (stereo not shown) [Compound 260] | 20 to 100 | 20 to 100 | 100 to 400 | 20 to 100 |
| Cc1nc2ccc(Oc3ccc4ncc(-c5cnn([C@H]6CCN(CC(F)(F)F)C[C@@H]6F)c5)nc4c3Cl)cc2[nH]1 [Compound 262] | 100 to 400 | 20 to 100 | ≥ 400 | 20 to 100 |
| Cc1nc2ccc(Oc3ccc4ncc(-c5cnn(C6CCNCC6)c5C)nc4c3Cl)cc2[nH]1 [Compound 263] | 100 to 400 | 100 to 400 | ≥ 400 | 100 to 400 |
| Cc1nc2ccc(Oc3ccc4ncc(-c5cn(C6CCNCC6)nc5C)nc4c3Cl)cc2[nH]1 [Compound 264] | 20 to 100 | 20 to 100 | 100 to 400 | 20 to 100 |
| Cc1nc2ccc(Oc3ccc4ncc(-c5cnn(C6CC(N7CC(F)(F)C7)C6)c5)nc4c3Cl)cc2[nH]1 (stereo not shown) [Compound 265] | 20 to 100 | 20 to 100 | 100 to 400 | 20 to 100 |
